{
  "source": "patent US9809532B2",
  "about": "“Uses of histone acetyltransferase activators” (THE TRUSTEES OF COLUMBIA UNIVERSITY IN THE CITY OF NEW YORK, priority 2011, dated 2017)",
  "key": {"BDNF": {"test_system": "BDNF", "assay": "BDNF levels in hippocampi of Aβ-infused mice", "format": "in vivo", "conditions": "for hippocampal BDNF levels after Aβ infusion: 20 mg/kg, i.p., 90 min before harvesting, Aβ-infused mice", "from_the_text": "3(1): p. 12-29; Caccamo, A., et al., CBP gene transfer increases BDNF levels and ameliorates learning and memory deficits in a mouse model of Alzheimer's disease. Proc Natl Acad Sci USA, 2010. 107(52): p. 22687-92; each herein incorporated by reference in its entirety). […] The Journal of Neuroscience: The Official Journal of the Society for Neuroscience, 2007. 27(10): p. 2628-35; each herein incorporated by reference in its entirety). Thus, preliminary studies on Compound 1 efficacy were extended to BDNF. BDNF levels in the hippocampi of Aβ-infused mice were measured compared to vehicle infused animals. Consistent with the decrease in BDNF levels in brains of AD patients and animal models of AD, a reduction of BDNF levels following Aβ infusion was found (FIG. 23)."}, "HDAC7": {"target": "T1, HDAC7 (Homo sapiens, UniProt Q8WUI4)", "T1 sequence (Q8WUI4 1-952)": "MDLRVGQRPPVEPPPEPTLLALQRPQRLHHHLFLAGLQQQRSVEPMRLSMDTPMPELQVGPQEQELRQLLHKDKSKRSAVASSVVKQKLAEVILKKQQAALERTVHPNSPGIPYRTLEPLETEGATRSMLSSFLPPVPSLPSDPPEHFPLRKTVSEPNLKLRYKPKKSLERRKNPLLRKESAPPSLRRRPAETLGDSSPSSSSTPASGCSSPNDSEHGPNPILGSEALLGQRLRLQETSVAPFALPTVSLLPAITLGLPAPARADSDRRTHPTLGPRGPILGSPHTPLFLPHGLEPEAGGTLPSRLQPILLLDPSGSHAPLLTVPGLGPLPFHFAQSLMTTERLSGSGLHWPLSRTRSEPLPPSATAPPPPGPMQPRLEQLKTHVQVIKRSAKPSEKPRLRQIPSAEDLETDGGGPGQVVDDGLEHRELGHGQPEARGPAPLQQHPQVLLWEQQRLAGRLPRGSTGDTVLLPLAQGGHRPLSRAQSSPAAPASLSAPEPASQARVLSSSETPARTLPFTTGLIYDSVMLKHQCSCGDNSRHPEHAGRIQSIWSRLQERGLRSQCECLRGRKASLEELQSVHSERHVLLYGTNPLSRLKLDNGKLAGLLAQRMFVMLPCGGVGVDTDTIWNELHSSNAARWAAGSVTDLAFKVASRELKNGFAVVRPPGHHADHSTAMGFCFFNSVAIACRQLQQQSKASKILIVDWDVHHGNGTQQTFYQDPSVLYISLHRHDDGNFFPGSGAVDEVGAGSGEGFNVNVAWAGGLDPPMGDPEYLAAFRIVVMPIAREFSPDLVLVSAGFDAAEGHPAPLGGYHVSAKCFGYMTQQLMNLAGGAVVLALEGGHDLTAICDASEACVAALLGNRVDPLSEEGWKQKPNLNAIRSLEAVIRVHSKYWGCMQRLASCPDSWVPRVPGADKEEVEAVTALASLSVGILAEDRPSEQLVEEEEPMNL", "assay": "HDAC7 activity assay (fluorescence)"}, "HDAC6": {"target": "T2, HDAC6 (Homo sapiens, UniProt Q9UBN7)", "T2 sequence (Q9UBN7 1-1215)": "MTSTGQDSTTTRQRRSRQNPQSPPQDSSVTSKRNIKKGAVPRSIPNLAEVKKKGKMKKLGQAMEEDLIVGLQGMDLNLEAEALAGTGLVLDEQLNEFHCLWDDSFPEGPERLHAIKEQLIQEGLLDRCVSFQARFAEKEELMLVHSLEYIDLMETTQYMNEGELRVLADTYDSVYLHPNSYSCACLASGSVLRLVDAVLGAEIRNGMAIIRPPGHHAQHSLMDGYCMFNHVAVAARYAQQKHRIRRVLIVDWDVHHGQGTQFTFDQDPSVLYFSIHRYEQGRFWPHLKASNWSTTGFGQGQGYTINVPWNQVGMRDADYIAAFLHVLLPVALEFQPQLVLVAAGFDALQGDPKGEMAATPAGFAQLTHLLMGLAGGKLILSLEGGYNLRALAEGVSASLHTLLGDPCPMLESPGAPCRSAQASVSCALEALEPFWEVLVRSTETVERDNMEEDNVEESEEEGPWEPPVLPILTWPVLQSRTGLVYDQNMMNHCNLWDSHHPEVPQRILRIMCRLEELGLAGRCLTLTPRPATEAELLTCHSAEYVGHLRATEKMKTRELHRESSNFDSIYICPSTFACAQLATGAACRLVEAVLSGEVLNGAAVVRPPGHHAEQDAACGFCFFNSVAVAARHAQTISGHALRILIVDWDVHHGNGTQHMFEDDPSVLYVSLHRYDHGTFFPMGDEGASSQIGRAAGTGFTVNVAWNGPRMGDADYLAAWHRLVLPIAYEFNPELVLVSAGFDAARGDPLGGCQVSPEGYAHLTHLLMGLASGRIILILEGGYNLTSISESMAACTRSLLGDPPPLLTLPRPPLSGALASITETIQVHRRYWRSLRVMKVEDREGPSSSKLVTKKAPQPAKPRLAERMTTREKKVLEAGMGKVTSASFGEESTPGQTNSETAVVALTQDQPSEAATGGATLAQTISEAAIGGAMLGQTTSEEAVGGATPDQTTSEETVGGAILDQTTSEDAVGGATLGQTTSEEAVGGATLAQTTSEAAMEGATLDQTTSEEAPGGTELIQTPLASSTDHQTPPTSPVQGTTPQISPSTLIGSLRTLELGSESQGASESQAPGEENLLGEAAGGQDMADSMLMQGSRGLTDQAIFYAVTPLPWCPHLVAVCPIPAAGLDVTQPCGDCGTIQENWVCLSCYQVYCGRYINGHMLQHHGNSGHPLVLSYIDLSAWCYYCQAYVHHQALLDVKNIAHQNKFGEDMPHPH", "assay": "HDAC6 activity assay (fluorescence)", "conditions": "Compound 1 Log [nM] 4.0; Repeat1/Repeat2"}},
  "data": [
    {"compound": "CCOc1cccc(OCCN(C)C)c1C(=O)Nc1ccc(Cl)c(C(F)(F)F)c1", "note": "[Compound 1]", "values": [
      {"measurement": "hippocampal BDNF levels after Aβ infusion", "setting": "BDNF", "value": "rescued"},
      {"measurement": "hippocampal BDNF levels after Aβ infusion", "setting": "BDNF; listed as YF2", "value": "rescued Aβ-induced decrease in hippocampal BDNF levels"},
      {"measurement": "hippocampal BDNF levels", "setting": "BDNF; vehicle-infused mice", "value": "increased BDNF levels"},
      {"measurement": "IC50", "setting": "HDAC7", "value": "> 200", "unit": "µM"},
      {"measurement": "% Activity (HDAC6)", "setting": "HDAC6", "value": 94.62, "unit": "%"}
    ]}
  ]
}
